In one assay the test system is INS-1E cells. As to the kind of experiment: Cytokine-induced apoptosis (caspase-3/7 activation, Caspase-Glo 3/7) in INS-1E rat insulinoma cells. It counts as cell-based. The following applies: cytokine mix (IFN-γ, IL-1, TNF-α), 24 hours, caspase 3/7 activity, read-out: CYT EC50. From the text: The INS-1E cell line, a rat insulinoma cell line, has been characterized extensively. INS-1E cells respond to glucose by secreting insulin and, unlike most other immortalized n-cell lines, they do this in a consistent manner over time. The cells are sensitive to hyperglycemia-, free fatty acid (FFA)-, and cytokine-induced stress. Prolonged stress ultimately leads to induction of apoptotic pathways and, if stress is not counter-acted, to apoptosis. Caspase-3 and -7 play a central role downstream where various apoptotic pathways merge. As such, activation (i.e. cleavage) of these caspases forms a relevant primary read-out to evaluate protective activity of compounds against stress-induced apoptosis.
To evaluate the efficacy of different compounds to prevent induction of apoptosis, an in vitro screen was developed in which INS-1E cells were exposed to a cytokine mix (IFN-γ, 5 ng/ml; IL-1, 20 pg/ml; TNF-α, 0.25 ng/ml). The degree of induction of apoptosis was evaluated using a substrate for cleaved caspase-3 and -7, i.e. a proluminescent caspase-3/7 DEVD aminoluciferin substrate with a thermostable luciferase (Caspase-Glo® 3/7 assay; Promega, cat. G8092).
On day 0, INS-1E cells were plated in a white-walled 96-well microplate (Greiner, cat. 655098) at 20,000 cells per well in 100 μl complete medium (RPMI containing 11 mM glucose supplemented with 5% FCS, 100 IU/ml penicillin, 100 μg/ml streptomycin, 10 mM HEPES, 1 mM Sodium Pyruvate and 50 μM 2-Mercapto-ethanol). On day 2, 100 μl medium containing cytokines and compound dissolved in DMSO was added to the cells. Wells without cytokines containing DMSO and wells with cytokines and DMSO were included to evaluate the degree of caspase 3/7 activation by the cytokine mix. After 24 hours exposure to cytokines and/or compound, Caspase-Glo® 3/7 reagent was added to the cells and caspase activity was determined by measuring luminescence.
To evaluate compound efficacy, the “toxicity window” was calculated by subtracting caspase activity of wells without stressor from activity of wells with stressor but without compound. The amount of caspase activity in the latter wells was normalized to 1 and used as reference. Subsequently, caspase activity in the wells with stressor and varying concentrations of compound was calculated relative to the wells without compound. Plotting caspase activity vs the log 10 of the concentration of compound permitted calculation of the EC50 values for the compounds which typically lied between 0.0001 and 10 μM. Compounds with an EC50<10 μM were considered active.
By EC50 is commonly meant the concentration needed to bring the measured effect to its halfway point. `CCOc1ccc(S(=O)(=O)N2CCC3(CC2)CN(S(=O)(=O)c2ccc(OC(F)F)cc2)C3)cc1` [Cmpd049, 2-((4-(Difluoromethoxy)phenyl)sulfonyl)-7-((4-ethoxyphenyl)sulfonyl)-2,7-diazaspiro[3.5]nonane]: the EC50 came to 90 nM.
Take `O=S(=O)(c1ccc(OC(F)F)cc1)N1CCC2(CC1)CN(S(=O)(=O)c1ccc(Cl)cc1)C2` [Cmpd043, 2-((4-Chlorophenyl)sulfonyl)-7-((4-(difluoromethoxy)phenyl)sulfonyl)-2,7-diazaspiro[3.5]nonane]: the EC50 is 86 nM.
The same measure, in the same setting: the same measure for `COc1ccc(S(=O)(=O)N2CCC3(CC2)CN(C(=O)C2CCOc4ccccc42)C3)cc1` (centres unmarked) [Cmpd021, Chroman-4-yl(7-((4-methoxyphenyl)sulfonyl)-2,7-diazaspiro[3.5]nonan-2-yl)methanone]: 503 nM; for `COc1ccc(S(=O)(=O)N2CCC3(CC2)CN(S(=O)(=O)c2ccc(Cl)cc2)C3)cc1` [Cmpd005, 2-((4-Chlorophenyl)sulfonyl)-7-((4-methoxyphenyl)sulfonyl)-2,7-diazaspiro[3.5]nonane]: 20 nM.
Take `COc1ccc(S(=O)(=O)N2CCC3(CC2)CN(c2nc(-c4cnccn4)ns2)C3)cc1` [Cmpd038, 5-(7-((4-Methoxyphenyl)sulfonyl)-2,7-diazaspiro[3.5]nonan-2-yl)-3-(pyrazin-2-yl)-1,2,4-thiadiazole]: the EC50 came to 317 nM.
In the case of `COc1ccc(S(=O)(=O)N2CCC3(CC2)CN(C(=O)Cc2ccccc2)C3)cc1` [Cmpd010, 1-(7-((4-Methoxyphenyl)sulfonyl)-2,7-diazaspiro[3.5]nonan-2-yl)-2-phenylethanone], the EC50 was 178 nM.
Still for that read-out and setting: the same measure for `COc1ccc(S(=O)(=O)N2CCC3(CC2)CN(S(=O)(=O)c2ccc(OC(F)F)cc2)C3)cc1` [Cmpd003, 2-((4-(Difluoromethoxy)phenyl)sulfonyl)-7-((4-methoxyphenyl)sulfonyl)-2,7-diazaspiro[3.5]nonane]: 40 nM; for `O=S(=O)(c1ccc(F)cc1)N1CCC2(CC1)CN(S(=O)(=O)c1ccc(OC(F)F)cc1)C2` [Cmpd051, 2-((4-(Difluoromethoxy)phenyl)sulfonyl)-7-((4-fluorophenyl)sulfonyl)-2,7-diazaspiro[3.5]nonane]: 33 nM; for `O=S(=O)(c1ccc(Cl)cc1)N1CCC2(CC1)CN(S(=O)(=O)c1ccc(OC(F)F)cc1)C2` [Cmpd050, 7-((4-Chlorophenyl)sulfonyl)-2-((4-(difluoromethoxy)phenyl)sulfonyl)-2,7-diazaspiro[3.5]nonane]: 103 nM.
Still for that read-out and setting: the same measure for `COc1ccc(S(=O)(=O)N2CCC3(CC2)CN(C(=O)Cc2ccc(F)cc2)C3)cc1` [Cmpd006, 2-(4-Fluorophenyl)-1-(7-((4-methoxyphenyl)sulfonyl)-2,7-diazaspiro[3.5]nonan-2-yl)ethanone]: 178 nM; for `O=S(=O)(c1ccc(OC(F)F)cc1)N1CCC2(CC1)CN(S(=O)(=O)c1ccc(OC(F)F)cc1)C2` [Cmpd048, 2,7-Bis((4-(difluoromethoxy)phenyl)sulfonyl)-2,7-diazaspiro[3.5]nonane]: 61 nM.
As for `CCOc1ccc(S(=O)(=O)N2CC3(CCN(S(=O)(=O)c4ccc(OC(F)F)cc4)CC3)C2)cc1` [Cmpd042, 7-((4-(Difluoromethoxy)phenyl)sulfonyl)-2-((4-ethoxyphenyl)sulfonyl)-2,7-diazaspiro[3.5]nonane], the EC50 worked out at 41 nM.
On to `COc1ccc(S(=O)(=O)N2CCC3(CC2)CN(c2nc(-c4ccc(Cl)cc4)ns2)C3)cc1` [Cmpd039, 3-(4-Chlorophenyl)-5-(7-((4-methoxyphenyl)sulfonyl)-2,7-diazaspiro[3.5]nonan-2-yl)-1,2,4-thiadiazole], for which the EC50 was 100 nM.
`O=S(=O)(c1ccc(OC(F)F)cc1)N1CCC2(CC1)CN(S(=O)(=O)c1ccc(F)cc1)C2` [Cmpd044, 7-((4-(Difluoromethoxy)phenyl)sulfonyl)-2-((4-fluorophenyl)sulfonyl)-2,7-diazaspiro[3.5]nonane]: the EC50 was found to be 188 nM.
Turning to `COc1ccc(S(=O)(=O)N2CC3(CCN(S(=O)(=O)c4ccc(Cl)cc4)CC3)C2)cc1` [Cmpd047, 7-((4-Chlorophenyl)sulfonyl)-2-((4-methoxyphenyl)sulfonyl)-2,7-diazaspiro[3.5]nonane], the EC50 was 14 nM.

The next assay relates to M17_3SYN cells. As to the kind of experiment: Paraquat-induced cytotoxicity (LDH) in α-synuclein over-expressing M17_3SYN neuroblastoma cells. Format: cell-based. The following applies: Homo sapiens, Neuroblastoma cell, 48 h, 6 mM Paraquat, 2 days, LDH toxicity inhibition, read-out: SYN EC50. The text has this: A α-synuclein expression plasmid was constructed by subcloning the NcoI/XhoI fragment from 212T-SYN(WT) (Griffioen et al., Biochem Biophys Acta (2006) 1762(3):312-318) containing the cDNA of human wild type α-synuclein correspondingly into a standard mammalian expression vector pcDNA3.1 resulting in plasmid pcDNA3.1-SYNwt. Plasmids pcDNA3.1 and pcDNA3.1-SYNwt were transfected into human neuroblastoma cells (BE-M17; ATCC No. CRL-2267™) using lipofectamine reagent and subsequently, independent clonal cell lines with the plasmids stably integrated into the genome were selected by antibiotic resistance selection (Geneticin (G418)), resulting in cell lines M17.pcDNA3 and M17_3SYN. Overexpression of α-synuclein in the M17_3SYN cell line was confirmed by Western blot analysis.
Due to the high levels of α-synuclein, M17_3SYN cells were sensitive to paraquat, a well-known risk factor Parkinson's disease and of synuclein-dependent neuronal degeneration. Cytotoxicity of cells was measured by quantification of lactate dehydrogenase (LDH) levels. In dead cells, LDH leaked out of the cells into the medium due to a loss of plasma-membrane integrity.
Three days preceding the experiment, primary pre-cultures of M17.pcDNA3 (as possible control) and M17_3SYN cells were prepared, starting from a stock culture, at a density of 20.000-40.000 cells/cm2 in culture medium (Opti-MEM® Reduced Serum Medium with Phenol Red (Invitrogen, Cat. 31985-047) supplemented with 10% FCS, 1 mM sodium pyruvate, 1×NEAA, 500 μg/ml G418 and 0.5× antibiotic/antimycotic (ABAM)). 3 days later these primary pre-cultures were used as a starting point to make secondary pre-cultures at a density of 50.000-100.000 cells/cm^2. At the day of the experiment these secondary precultures were diluted to ˜0.5·10^6 cells/ml in detection medium (Opti-MEM® Reduced-Serum Medium without Phenol Red (Invitrogen, Cat. 11085-021) supplemented with 10% FCS, 1 mM sodium pyruvate, 1×NEAA, 500 μg/ml G418 and 0.5×ABAM) and 60 μL of this suspension was dispensed per well into a 96-well microtiter plate. After 3 hours of incubation at 37° C./5% CO2 an equal volume of detection medium containing a final concentration of 6 mM Paraquat was added and subsequently incubated for 2 days at 37° C./5% CO2. Then LDH activity was determined using the Promega Cytotox 96 Non-Radioactive cytotoxicity assay (Promega, Cat. G1780), according to the manufacturer's instructions. Cytotoxicity was defined as the ratio of LDH relative to the total LDH in the cells and supernatant.
The assay described above using the M17_3SYN cell line allowed screening compounds for their ability to decrease cytotoxicity in PQ-challenged cells. Compounds of the invention were tested for their ability to decrease toxicity at different concentrations, ranging from low non-effective concentrations to high effective concentrations. Afterwards, a dose-dependent inhibition curve was used to calculate the EC50. A compound was considered to be active in this test when it inhibited toxicity by more than 20% relative to untreated M17_3SYN cells at a concentration of […] or lower.
In the case of `COc1ccc(S(=O)(=O)N2CCC3(CC2)CN(S(=O)(=O)c2ccc(Cl)cc2)C3)cc1` [Cmpd005, 2-((4-Chlorophenyl)sulfonyl)-7-((4-methoxyphenyl)sulfonyl)-2,7-diazaspiro[3.5]nonane], the EC50 came to 6.4 nM.
Regarding `CCc1ccc(S(=O)(=O)N2CCC3(CC2)CN(c2nc(Cc4ccc(F)cc4)ns2)C3)cc1` [Cmpd068, 5-(7-((4-Ethylphenyl)sulfonyl)-2,7-diazaspiro[3.5]nonan-2-yl)-3-(4-fluorobenzyl)-1,2,4-thiadiazole], the EC50 stood at 399 nM.
For `CCCCc1nsc(N2CC3(CCN(S(=O)(=O)c4ccc(OC)cc4)CC3)C2)n1` [Cmpd035, 3-Butyl-5-(7-((4-methoxyphenyl)sulfonyl)-2,7-diazaspiro[3.5]nonan-2-yl)-1,2,4-thiadiazole], the concentration giving a half-maximal response (EC50) is 326 nM.
With `COc1ccc(S(=O)(=O)N2CCC3(CC2)CN(c2nc(Cc4ccc(F)c(F)c4)ns2)C3)cc1` [Cmpd033, 3-(3,4-Difluorobenzyl)-5-(7-((4-methoxyphenyl)sulfonyl)-2,7-diazaspiro[3.5]nonan-2-yl)-1,2,4-thiadiazole], the EC50 amounted to 332 nM.
As to `O=S(=O)(N1CCOCC1)N1CCC2(CC1)CN(c1nc(Cc3ccc(F)cc3)ns1)C2` [Cmpd098, 4-((2-(3-(4-Fluorobenzyl)-1,2,4-thiadiazol-5-yl)-2,7-diazaspiro[3.5]nonan-7-yl)sulfonyl)morpholine], the EC50 was determined as 1190 nM.
On to `Cc1ccc(F)cc1S(=O)(=O)N1CCC2(CC1)CN(c1nc(Cc3ccc(F)cc3)ns1)C2` [Cmpd077, 5-(7-((5-Fluoro-2-methylphenyl)sulfonyl)-2,7-diazaspiro[3.5]nonan-2-yl)-3-(4-fluorobenzyl)-1,2,4-thiadiazole], for which the EC50 was 235 nM.
Consider `Cn1cc(S(=O)(=O)N2CCC3(CC2)CN(c2nc(Cc4ccc(F)cc4)ns2)C3)cn1` [Cmpd090, 3-(4-Fluorobenzyl)-5-(7-((1-methyl-1H-pyrazol-4-yl)sulfonyl)-2,7-diazaspiro[3.5]nonan-2-yl)-1,2,4-thiadiazole], for which the 50% effective concentration (EC50) was found to be 285 nM.
Regarding `COc1ccc(S(=O)(=O)N2CCC3(CC2)CN(c2nc4ccc(Cl)cc4s2)C3)cc1` [Cmpd052, 6-Chloro-2-(7-((4-methoxyphenyl)sulfonyl)-2,7-diazaspiro[3.5]nonan-2-yl)benzo[d]thiazole], the EC50 was 463 nM.

For the origin of these results see patent US9617264B2, “2,7-diazaspiro[3.5]nonane compounds” (REMYND NV, priority 2014, dated 2017).
